Measurements from PubChem BioAssay (NCI).
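48-hour exposure; five concentrations; linearly interpolated endpoints. TGI is the concentration that stops growth completely.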

Legend:
Assay in all cases: NCI anticancer screen, dose series, 48 h
[1] = test system: 786-0 renal
[2] = test system: SF-295 CNS
[3] = test system: OVCAR-4 ovarian
[4] = test system: COLO 205 colon
[5] = test system: HS 578T breast
[6] = test system: MALME-3M melanoma
[7] = test system: SK-MEL-2 melanoma
[8] = test system: UACC-257 melanoma
[9] = test system: U251 CNS
[10] = test system: TK-10 renal
[11] = test system: HCC-2998 colon
[12] = test system: MCF7 breast
[13] = test system: HOP-92 NSCLC
[14] = test system: MDA-MB-231 breast
[15] = test system: OVCAR-8 ovarian
[16] = test system: DU-145 prostate
[17] = test system: SR leukemia
[18] = test system: T-47D breast
[19] = test system: MOLT-4 leukemia
[20] = test system: K-562 leukemia

SMILES	TGI [1]	TGI [2]	TGI [3]	TGI [4]	TGI [5]	TGI [6]	TGI [7]	TGI [8]	TGI [9]	TGI [10]	TGI [11]	TGI [12]	TGI [13]	TGI [14]	TGI [15]	TGI [16]	TGI [17]	TGI [18]	TGI [19]	TGI [20]
CCCC(=O)O[C@H]1C=C2C[C@@]34SS[C@]5(CC6=C[C@H](OC(C)=O)[C@@H]7O[C@@H]7[C@H]6N5C3=O)C(=O)N4[C@@H]2[C@H]2O[C@H]21	0.00841 µM	1.35 µM	0.887 µM	0.0637 µM	18.6 µM	0.0239 µM	0.296 µM	0.0746 µM	0.113 µM	0.24 µM	0.0194 µM	0.226 µM	0.0941 µM	0.246 µM	0.907 µM	0.362 µM	50 µM	0.605 µM	1.91 µM	5.83 µM
CC(C)(C)c1cc2c(O)c(c1)Cc1cc(C(C#N)(Cc3ccc4ccccc4c3)Cc3ccc4ccccc4c3)cc(c1O)Cc1cc(C(C)(C)C)cc(c1O)Cc1cc(C(C#N)(Cc3ccc4ccccc4c3)Cc3ccc4ccccc4c3)cc(c1O)C2	> 100 µM	> 100 µM	> 100 µM	> 100 µM	> 100 µM	> 100 µM	> 100 µM	> 100 µM	> 100 µM	> 100 µM	> 100 µM	> 100 µM	> 100 µM	> 100 µM	> 100 µM	> 100 µM	> 100 µM	> 100 µM	> 100 µM	> 100 µM
CN(C)Cc1cc(C(C)(C)C)ccc1-c1ccc(C(C)(C)C)cc1CN(C)C	> 100 µM	> 100 µM	> 100 µM	> 100 µM	> 100 µM	> 100 µM	> 100 µM	> 100 µM	> 100 µM	> 100 µM	23.5 µM	> 100 µM	> 100 µM	> 100 µM	> 100 µM	> 100 µM	> 100 µM	> 100 µM	> 100 µM	> 100 µM
COc1cc(/C=C2/SC(c3ccccc3)N(c3ccccc3)C2=O)cc(OC)c1OC (stereo not given)	> 100 µM	> 100 µM	> 100 µM	> 100 µM	> 100 µM	> 100 µM	> 100 µM	> 100 µM	> 100 µM	> 100 µM	> 100 µM	> 100 µM	> 100 µM	> 100 µM	> 100 µM	> 100 µM	> 100 µM	> 100 µM	> 100 µM	> 100 µM
OC[C@]1(n2nc3ccccc3n2)OC[C@@H]1c1ccccc1	> 100 µM	> 100 µM	70.7 µM	> 100 µM	> 100 µM	> 100 µM	> 100 µM	> 100 µM	> 100 µM	> 100 µM	> 100 µM	> 100 µM	> 100 µM	> 100 µM	> 100 µM	> 100 µM	> 100 µM	> 100 µM	> 100 µM	> 100 µM
Brc1c(C#CCC(c2ccccc2)(c2ccccc2)c2ccccc2)ccc(C#CCC(c2ccccc2)(c2ccccc2)c2ccccc2)c1Br	> 100 µM	> 100 µM	> 100 µM	> 100 µM	> 100 µM	> 100 µM	> 100 µM	> 100 µM	> 100 µM	> 100 µM	> 100 µM	> 100 µM	> 100 µM	> 100 µM	> 100 µM	> 100 µM	> 100 µM	> 100 µM	> 100 µM	> 100 µM
CCN(CC)CCCn1c(=O)c2ccccc2n2c3c(=O)n(C)c(=O)n(C)c3nc12	18.6 µM	15.6 µM	22.6 µM	20.6 µM	45.6 µM	21.4 µM	35 µM	26.2 µM	23.3 µM	38.9 µM	22 µM	> 100 µM	16.4 µM	30.1 µM	23.4 µM	10.6 µM	3.37 µM	49.8 µM	8.92 µM	33.6 µM
CC(=O)Oc1cc2c(c3ncccc13)OC(C)(C)C2	30.3 µM	36.1 µM	25.5 µM	35 µM	24.9 µM	23.4 µM	44.6 µM	29.5 µM	31.8 µM	26.3 µM	> 100 µM	61.8 µM	27.1 µM	24.4 µM	74.8 µM	28.7 µM	6 µM	81.2 µM	29.9 µM	23.4 µM
CCOP(=O)(C/C=C/Cn1nc(Br)c(=O)[nH]c1=O)OCC	> 100 µM	> 100 µM	> 100 µM	> 100 µM	> 100 µM	> 100 µM	> 100 µM	> 100 µM	> 100 µM	> 100 µM	> 100 µM	> 100 µM	> 100 µM	> 100 µM	> 100 µM	> 100 µM	> 100 µM	> 100 µM	> 100 µM	> 100 µM
CC(C)(C)OC(=O)N(O)CCCn1cnc2c(N)ncnc21	> 100 µM	> 100 µM	> 100 µM	> 100 µM	> 100 µM	> 100 µM	> 100 µM	> 100 µM	> 100 µM	> 100 µM	> 100 µM	> 100 µM	> 100 µM	> 100 µM	> 100 µM	> 100 µM	> 100 µM	> 100 µM	> 100 µM	> 100 µM
Cc1nn(C(=O)c2ccncc2)c2c1C(c1ccccc1)SC(N)=N2 (stereo not given)	> 10 µM	> 10 µM	> 10 µM	> 10 µM	> 10 µM	> 10 µM	> 10 µM	> 10 µM	> 10 µM	> 10 µM	> 10 µM	> 10 µM	> 10 µM	> 10 µM	> 10 µM	> 10 µM	> 10 µM	> 10 µM	> 10 µM	> 10 µM
CN(C)CC1COC2Cc3ccccc3C1O2 (stereo not given)	> 100 µM	> 100 µM	> 100 µM	> 100 µM	> 100 µM	> 100 µM	> 100 µM	> 100 µM	> 100 µM	> 100 µM	> 100 µM	> 100 µM	> 100 µM	> 100 µM	> 100 µM	> 100 µM	> 100 µM	> 100 µM	> 100 µM	> 100 µM
Cc1ccc2c(n1)C(=O)C=CC2=O	11.4 µM	35.7 µM	12.8 µM	4.95 µM	> 78.5 µM	16.8 µM	32.3 µM	14.6 µM	40.6 µM	6.21 µM	33.5 µM	53.8 µM	13.7 µM	19.5 µM	33.7 µM	30.7 µM	> 100 µM	4.74 µM	> 24 µM	18 µM
O=C(Nc1c(C(F)(F)F)cc(-c2ccccc2)[nH]c1=O)N1CCOCC1	> 100 µM	> 100 µM	> 100 µM	> 100 µM	> 100 µM	> 100 µM	> 100 µM	> 100 µM	> 100 µM	> 100 µM	> 100 µM	> 100 µM	> 100 µM	> 100 µM	> 100 µM	> 100 µM	> 100 µM	> 100 µM	> 100 µM	> 100 µM
N#CC(=C1CCCCC1)c1nc2ccccc2o1	> 100 µM	> 100 µM	> 100 µM	33.7 µM	> 100 µM	> 100 µM	> 100 µM	> 100 µM	> 100 µM	> 100 µM	> 100 µM	> 100 µM	> 100 µM	> 100 µM	> 100 µM	> 100 µM	> 100 µM	> 100 µM	> 100 µM	> 100 µM
COc1cc(C2SC(N)=Nc3c2c(C)nn3C(=O)c2ccccc2O)ccc1O (stereo not given)	> 10 µM	> 10 µM	> 6.37 µM	> 10 µM	> 10 µM	> 10 µM	> 10 µM	> 10 µM	> 10 µM	> 10 µM	> 10 µM	> 10 µM	> 10 µM	> 10 µM	> 10 µM	> 10 µM	> 2.73 µM	> 10 µM	> 10 µM	> 3.75 µM
COc1cc(C(=O)O[C@@H]2[C@@H](OC(=O)c3cc(OC)c(OC)c(OC)c3)[C@@H](OC)O[C@@H]3CO[C@@H](c4ccccc4)O[C@@H]23)cc(OC)c1OC	> 100 µM	> 100 µM	> 100 µM	> 100 µM	> 100 µM	> 100 µM	> 100 µM	> 100 µM	> 100 µM	> 100 µM	> 100 µM	> 100 µM	> 100 µM	> 100 µM	> 100 µM	> 100 µM	> 100 µM	> 100 µM	> 100 µM	> 100 µM
O=C1CC(=O)NC(=NN2C(=O)/C(=C/c3ccccc3)N=C2c2ccccc2)N1	> 100 µM	> 100 µM	> 100 µM	> 100 µM	> 100 µM	> 100 µM	> 100 µM	> 100 µM	> 100 µM	> 100 µM	> 100 µM	> 100 µM	> 100 µM	> 100 µM	> 100 µM	> 100 µM	> 100 µM	> 100 µM	> 100 µM	> 100 µM
